Values quoted from earlier work in PubChem BioAssay AID1259409 (Chemical Carcinogenesis Research Information System (CCRIS), 2018).
“And” between values parts separate entries of the source, which are not always exact repeats. Equal values may be shown once.

System: rodent chemically induced tumor inhibition, incidence and multiplicity
Test: CCRIS tumor inhibitor studies
Settings: Route [Inhibitor]: ORAL
Source text: The CCRIS database contains chemical records with carcinogenicity, mutagenicity, tumor promotion, and tumor inhibition test results. It was developed by the National Cancer Institute (NCI). Data are derived from studies cited in primary journals, current awareness tools, NCI reports, and other sources. Test results have been reviewed by experts in carcinogenesis and mutagenesis.
CCRIS provides historical information from the years 1985 - 2011. It is no longer updated.
This is an archive assay for CCRIS tumor inhibitor studies.

Compound: CSCCC(N)C(=O)O (configuration not stated)
- tumour outcome (control, treated, inhibition, significance) (Carcinogen: 3'-METHYL-4-DIMETHYLAMINOAZOBENZENE, 55-80-1, Dose [Inhibitor]: 0.72% IN DIET DAILY FOR 4 WK STARTING AFTER COMPLETION OF THE FIRST 4 WK OF CARCINOGEN TREATMENT (STUDY DURATION: 20 WK), Species: RAT, Target Tissue: Type of Lesion: LIVER: TUMOR, Dose [Carcinogen]: 0.064% IN DIET DAILY FOR 8 WK, 4 WK BEFORE AND ANOTHER 4 WK AFTER AGENT TREATMENT, Promoter: NONE USED): 7/15 (47%), 8/15 (53%), -13%, not calculated and 7/9 (78%), 8/12 (67%), 14%, not calculated
- tumour outcome (control, treated, inhibition, significance) (Carcinogen: 4-DIMETHYLAMINOAZOBENZENE, 60-11-7, Dose [Inhibitor]: 0.5% OF DIET DAILY STARTING SIMULTANEOUSLY WITH CARCINOGEN TREATMENT AND CONTINUING THROUGH END OF STUDY (STUDY DURATION, Species: RAT, Strain/Sex: OSBORNE-MENDEL/MALE, Target Tissue: Type of Lesion: LIVER: MALIGNANT TUMOR, Dose [Carcinogen]: 0.06% OF DIET DAILY, Promoter: NONE USED): 48/80 (60%), 18/20 (90%), -50%, not calculated
- tumour outcome (control, treated, inhibition, significance) (Carcinogen: 7,12-DIMETHYLBENZ[A]ANTHRACENE, 57-97-6, Dose [Inhibitor]: 0.5% DIET FOR 1 YR STARTING 5 D PRIOR TO CARCINOGEN TREATMENT (STUDY DURATION: 1 YR), Species: RAT, Strain/Sex: ALBINO/FEMALE, Target Tissue: Type of Lesion: HEMATPOIETIC SYSTEM: LEUKEMIA, Dose [Carcinogen]: 1.5 MG 1/WK FOR 3 WK, Promoter: NONE USED): 5/32 (16%), 2/34 (6%), 63%, not significant
- tumour outcome (control, treated, inhibition, significance) (Carcinogen: 7,12-DIMETHYLBENZ[A]ANTHRACENE, 57-97-6, Dose [Inhibitor]: 0.5% DIET FOR 1 YR STARTING 5 D PRIOR TO CARCINOGEN TREATMENT (STUDY DURATION: 1 YR), Species: RAT, Strain/Sex: ALBINO/FEMALE, Target Tissue: Type of Lesion: MAMMARY GLAND: ADENOCARCINOMA, Dose [Carcinogen]: 1.5 MG 1/WK FOR 3 WK, Promoter: NONE USED): 22/32 (69%), 6/34 (18%), 74%, p<0.0001
- tumour outcome (control, treated, inhibition, significance) (Carcinogen: 7,12-DIMETHYLBENZ[A]ANTHRACENE, 57-97-6, Dose [Inhibitor]: 0.5% DIET FOR 1 YR STARTING 5 D PRIOR TO CARCINOGEN TREATMENT (STUDY DURATION: 1 YR), Species: RAT, Strain/Sex: ALBINO/FEMALE, Target Tissue: Type of Lesion: MAMMARY GLAND: FIBROADENOMA, Dose [Carcinogen]: 1.5 MG 1/WK FOR 3 WK, Promoter: NONE USED): 21/32 (66%), 14/32 (41%), 38%, p 0.025
- tumour outcome (control, treated, inhibition, significance) (Carcinogen: 7,12-DIMETHYLBENZ[A]ANTHRACENE, 57-97-6, Dose [Inhibitor]: 0.5% DIET FOR 1 YR STARTING 5 D PRIOR TO CARCINOGEN TREATMENT (STUDY DURATION: 1 YR), Species: RAT, Strain/Sex: ALBINO/FEMALE, Target Tissue: Type of Lesion: ZYMBAL'S GLAND: CARCINOMA, Dose [Carcinogen]: 1.5 MG 1/WK FOR 3 WK, Promoter: NONE USED): 5/32 (16%), 6/34 (18%), -13%, not significant
- tumour outcome (control, treated, inhibition, significance) (Carcinogen: DIETHYLNITROSAMINE, 55-18-5, Dose [Inhibitor]: 0, 1.5% IN DIET BEGINNING 1 WK POST CARCINOGEN DOSE (STUDY DURATION: 52 WK), Species: MOUSE, Strain/Sex: C3H/MALE, Target Tissue: Type of Lesion: LIVER: ADENOMA, Dose [Carcinogen]: 150 MG/KG ONCE, Promoter: NONE USED): 14%, 9%, 36%, not calculated
- tumour outcome (control, treated, inhibition, significance) (Carcinogen: DIETHYLNITROSAMINE, 55-18-5, Dose [Inhibitor]: 0, 1.5% IN DIET BEGINNING 1 WK POST CARCINOGEN DOSE (STUDY DURATION: 52 WK), Species: MOUSE, Strain/Sex: C3H/MALE, Target Tissue: Type of Lesion: LIVER: ADENOMA, Dose [Carcinogen]: 150 MG/KG ONCE, Promoter: PHENOBARBITAL, 50-06-6): 16%, 22%, -38%, not calculated
- tumour outcome (control, treated, inhibition, significance) (Carcinogen: DIETHYLNITROSAMINE, 55-18-5, Dose [Inhibitor]: 0, 1.5% IN DIET BEGINNING 1 WK POST CARCINOGEN DOSE (STUDY DURATION: 52 WK), Species: MOUSE, Strain/Sex: C3H/MALE, Target Tissue: Type of Lesion: LIVER: CARCINOMA, Dose [Carcinogen]: 150 MG/KG ONCE, Promoter: NONE USED): 71%, 77%, -8%, not calculated
- tumour outcome (control, treated, inhibition, significance) (Carcinogen: DIETHYLNITROSAMINE, 55-18-5, Dose [Inhibitor]: 0, 1.5% IN DIET BEGINNING 1 WK POST CARCINOGEN DOSE (STUDY DURATION: 52 WK), Species: MOUSE, Strain/Sex: C3H/MALE, Target Tissue: Type of Lesion: LIVER: CARCINOMA, Dose [Carcinogen]: 150 MG/KG ONCE, Promoter: PHENOBARBITAL, 50-06-6): 74%, 33%, 55%, p<0.01
- tumour outcome (control, treated, inhibition, significance) (Carcinogen: DIETHYLNITROSAMINE, 55-18-5, Dose [Inhibitor]: 0, 1.5% IN DIET BEGINNING 1 WK POST CARCINOGEN DOSE (STUDY DURATION: 52 WK), Species: MOUSE, Strain/Sex: C3H/MALE, Target Tissue: Type of Lesion: LUNG: ADENOMA OR ADENOCARCINOMA, Dose [Carcinogen]: 150 MG/KG ONCE, Promoter: NONE USED): 6/14 (43%), 12/22 (55%), -28%, not calculated
- tumour outcome (control, treated, inhibition, significance) (Carcinogen: DIETHYLNITROSAMINE, 55-18-5, Dose [Inhibitor]: 0, 1.5% IN DIET BEGINNING 1 WK POST CARCINOGEN DOSE (STUDY DURATION: 52 WK), Species: MOUSE, Strain/Sex: C3H/MALE, Target Tissue: Type of Lesion: LUNG: ADENOMA OR ADENOCARCINOMA, Dose [Carcinogen]: 150 MG/KG ONCE, Promoter: PHENOBARBITAL, 50-06-6): 7/19 (37%), 0/9 (0%), 100%, not calculated
- tumour outcome (control, treated, inhibition, significance) (Carcinogen: ETHIONINE, 13073-35-3, Dose [Inhibitor]: 1.35 MMOL/100 G DIET DAILY FOR 4.5 MO ADMINISTERED SIMULTANEOUSLY WITH CARCINOGEN FOLLOWED BY NORMAL STOCK DIET FOR REMA, Species: RAT, Strain/Sex: WISTAR/MALE, Target Tissue: Type of Lesion: LIVER: CARCINOMA, Dose [Carcinogen]: 0.25% OF DIET DAILY FOR 8 MO, Promoter: NONE USED): 9/9 (100%), 2/8 (25%), 75%, not calculated
- tumour outcome (control, treated, inhibition, significance) (Carcinogen: ETHIONINE, 13073-35-3, Dose [Inhibitor]: 2 MMOL/100 G DIET DAILY FOR 8 MO ADMINISTERED SIMULTANEOUSLY WITH CARCINOGEN FOLLOWED BY 2 MO ON NORMAL STOCK DIET (STUD, Species: RAT, Strain/Sex: WISTAR/MALE, FEMALE, Target Tissue: Type of Lesion: LIVER: CARCINOMA, Dose [Carcinogen]: 0.25% OF DIET DAILY FOR 8 MO, Promoter: NONE USED): 9/10 (90%), 5/10 (50%), 44%, not calculated
- tumour outcome (control, treated, inhibition, significance) (Carcinogen: ETHIONINE, 13073-35-3, Dose [Inhibitor]: 4 MMOL/100 G DIET DAILY FOR 4.5 MO ADMINISTERED SIMULTANEOUSLY WITH CARCINOGEN FOLLOWED BY NORMAL STOCK DIET FOR REMAIND, Species: RAT, Strain/Sex: WISTAR/MALE, Target Tissue: Type of Lesion: LIVER: CARCINOMA, Dose [Carcinogen]: 0.25% OF DIET DAILY FOR 8 MO, Promoter: NONE USED): 9/9 (100%), 0/10 (0%), 100%, not calculated
- tumour outcome (control, treated, inhibition, significance) (Carcinogen: ETHIONINE, 13073-35-3, Dose [Inhibitor]: 4 MMOL/100 G DIET DAILY FOR 8 MO ADMINISTERED SIMULTANEOUSLY WITH CARCINOGEN FOLLOWED BY 4 MO ON BASAL DIET (STUDY DURAT, Species: RAT, Strain/Sex: WISTAR/MALE, Target Tissue: Type of Lesion: LIVER: CARCINOMA, Dose [Carcinogen]: 0.25% OF DIET DAILY FOR 12 MO, Promoter: NONE USED): 8/8 (100%), 0/9 (0%), 100%, not calculated
- tumour outcome (control, treated, inhibition, significance) (Carcinogen: ETHIONINE, 13073-35-3, Dose [Inhibitor]: 5.4 MMOL/100 G DIET DAILY FOR 4.5 MO ADMINISTERED SIMULTANEOUSLY WITH CARCINOGEN FOLLOWED BY NORMAL STOCK DIET FOR REMAI, Species: RAT, Strain/Sex: WISTAR/MALE, Target Tissue: Type of Lesion: LIVER: CARCINOMA, Dose [Carcinogen]: 0.25% OF DIET DAILY FOR 8 MO, Promoter: NONE USED): 9/9 (100%), 0/10 (0%), 100%, not calculated
- tumour outcome (control, treated, inhibition, significance) (Carcinogen: ETHIONINE, 13073-35-3, Dose [Inhibitor]: 5.4 MMOL/100 G DIET DAILY FOR 8 MO ADMINISTERED SIMULTANEOUSLY WITH CARCINOGEN FOLLOWED BY 4 MO ON BASAL DIET (STUDY DUR, Species: RAT, Strain/Sex: WISTAR/MALE, Target Tissue: Type of Lesion: LIVER: CARCINOMA, Dose [Carcinogen]: 0.25% OF DIET DAILY FOR 12 MO, Promoter: NONE USED): 8/8 (100%), 0/9 (0%), 100%, not calculated
- tumour outcome (control, treated, inhibition, significance) (Carcinogen: N-METHYL-N-NITROSOUREA, 684-93-5, Dose [Inhibitor]: 0.5% DIET FOR 1 YR STARTING 5 D PRIOR TO CARCINOGEN TREATMENT (STUDY DURATION: 1 YR), Species: RAT, Strain/Sex: ALBINO/FEMALE, Target Tissue: Type of Lesion: HEMATOPOIETIC SYSTEM: LEUKEMIA, Dose [Carcinogen]: 50 MG/KG 1/WK FOR 2 WK, Promoter: NONE USED): 9/28 (32%), 5/29 (17%), 47%, not significant
- tumour outcome (control, treated, inhibition, significance) (Carcinogen: N-METHYL-N-NITROSOUREA, 684-93-5, Dose [Inhibitor]: 0.5% DIET FOR 1 YR STARTING 5 D PRIOR TO CARCINOGEN TREATMENT (STUDY DURATION: 1 YR), Species: RAT, Strain/Sex: ALBINO/FEMALE, Target Tissue: Type of Lesion: KIDNEY: MESENCHYMAL TUMOR, Dose [Carcinogen]: 50 MG/KG 1/WK FOR 2 WK, Promoter: NONE USED): 15/28 (54%), 17/29 (59%), -9%, not significant
- tumour outcome (control, treated, inhibition, significance) (Carcinogen: N-METHYL-N-NITROSOUREA, 684-93-5, Dose [Inhibitor]: 0.5% DIET FOR 1 YR STARTING 5 D PRIOR TO CARCINOGEN TREATMENT (STUDY DURATION: 1 YR), Species: RAT, Strain/Sex: ALBINO/FEMALE, Target Tissue: Type of Lesion: MAMMARY GLAND: ADENOCARCINOMA, Dose [Carcinogen]: 50 MG/KG 1/WK FOR 2 WK, Promoter: NONE USED): 9/28 (32%), 4/29 (14%), 56%, p 0.05
- tumour outcome (control, treated, inhibition, significance) (Carcinogen: N-METHYL-N-NITROSOUREA, 684-93-5, Dose [Inhibitor]: 0.5% DIET FOR 1 YR STARTING 5 D PRIOR TO CARCINOGEN TREATMENT (STUDY DURATION: 1 YR), Species: RAT, Strain/Sex: ALBINO/FEMALE, Target Tissue: Type of Lesion: MAMMARY GLAND: FIBROADENOMA, Dose [Carcinogen]: 50 MG/KG 1/WK FOR 2 WK, Promoter: NONE USED): 5/28 (18%), 6/29 (21%), -17%, not significant
